Literature values, collected in patent US20240325432A1, “COMPOSITION AND METHODS OF TREATMENT USING TRANSDERMAL SUPPLEMENTATION” (Xygenyx Inc., priority 2023, published 2024).

What was measured:
[1] = compared to α-tocopherol = 1.0
[2] = tested on: markers of inflammation in the blood; details: individuals with metabolic syndrome
[3] = even when dietary intake occurs in equal portions
F2-isoprostane = details: 1600-3200 IU/day
[4] = in vivo
[5] = as penetration enhancer
rheumatoid arthritis = details: arthritic subjects
[6] = tested on: wide dynamic range neurons in the ventroposterolateral nucleus of the thalamus; details: believed

Cc1cc(O)cc2c1O[C@](C)(CCC[C@H](C)CCC[C@H](C)CCCC(C)C)CC2 [δ-tocopherol]
relative biological activity [1]: 0.03 | markers of inflammation in the blood [2]: reduced markers of inflammation

Cc1c(O)cc2c(c1C)O[C@](C)(CCC[C@H](C)CCC[C@H](C)CCCC(C)C)CC2 [γ-tocopherol]
relative biological activity [1]: 0.1 | concentration in vivo relative to α-tocopherol [3]: roughly 10%

Cc1c(C)c2c(c(C)c1O)CC[C@@](C)(CCC[C@H](C)CCC[C@H](C)CCCC(C)C)O2 [α-tocopherol]
relative biological activity [1]: 1.0 | reduction in the development of age-related cataracts (400-500 IU in combination with 10-20 mg β-carotene and 400-500 mg vitamin C): 23% | reduction of risk of coronary disease (dietary supplementation, doses up to 400 IU/day): up to 34% | reduction of risk of developing neurodegenerative diseases (Alzheimer's Syndrome or dementia) (dietary supplementation, doses up to 400 IU/day, controlled trials): ≤ 24% | blood plasma concentration of F2-isoprostane (F2-isoprostane): significantly lower

HGH: hormone comprising a peptide chain that is synthesized in the pituitary gland
biological half-life [4]: 10-20 minutes

CC(C)[C@@H]1CC[C@@H](C)C[C@H]1O [Menthol]
increase of transdermal drug uptake (factor) [5]: ≥ 10

CC12CCC(CC1)C(C)(C)O2 [eucalyptol, 1,8-epoxy-p-menthane]
increase of transdermal drug uptake (factor) [5]: more than 10

C=C1CC/C=C(\C)CC[C@@H]2[C@@H]1CC2(C)C [β-caryophyllene]
swelling of joints and lymph nodes (rheumatoid arthritis): reduced swelling of joints and lymph nodes

CCCCCc1cc(O)c2c(c1)OC(C)(C)C1CCC(C)=CC21 (stereo not drawn) [THC, Δ-9-tetrahydrocannabinol]
analgesic power relative to morphine [6]: ten times more powerful than morphine

Cc1cc(O)c(C)c2c1O[C@](C)(CCC[C@H](C)CCC[C@H](C)CCCC(C)C)CC2 [β-tocopherol]
relative biological activity [1]: 0.5
